This note sets out measurements from US10844062B2, “Pyridine derivative inhibiting RAF kinase and vascular endothelial growth factor receptor, method for preparing same, pharmaceutical composition containing same, and use thereof” (SAMJIN PHARMACEUTICAL CO., LTD., priority 2016, dated 2020).

The subject of the experiment is LS513 KRAS G12V (colon). The experiment can be described thus: MTT assay. Type of experiment: cell-based. To be noted: Homo sapiens, LS-513, 72 h, Table 4; 3 days incubation; read-out: MTT assay IC50 KRAS mutant (Colon) LS513 KRAS G12V. The method, then: MTT assay is frequently used for the purpose of primary screening for the sensitivity of anticancer agents and to examine cytotoxicity. When cancer cells are treated with varying concentrations of any anticancer agent for a predetermined time to induce death of the cells and are then treated with MTT, and when the formation of formazan is measured, the concentration of the anticancer agent, at which about 50% of the cells survive, can be determined. This concentration value is called IC50. IC50 values differ between drugs, and thus can be characteristic of the drugs. Using this method, the effects of anticancer agents against cell proliferation can be quantitatively compared. Thus, in order to measure the cytotoxicity of samples, MTT assay was performed using CellTiter 96 Non-radioactive Cell Proliferation Assay Kit (Promega).
Cells in a cell suspension were counted with a hematocytometer, and then 200 μL of the cell suspension was added to each well of a 96 well plate at a desired concentration (cell amount determined depending on a cell line). After cell seeding, the cells were incubated in a CO2 incubator at 37° C. overnight. After one day of cell stabilization, the cells were treated with desired concentrations of the compounds. The cells were incubated in a CO2 incubator at 37° C. for 3 days, and then the sample was removed, and 200 μL of MTT solution was added to each well. After 2 hours of incubation, the MTT dilution was carefully shaken, and 200 μL of DMSO was added to each well, followed by shaking with a plate shaker for 60 minutes.
For orientation: Tetrazolium dyes change colour on reduction, which living cells bring about.

pIC50: −log10 of the molar value.

As usually defined, the pIC50 is −log10 of the IC50, conventionally taken in molar units. On to `Cc1cn(-c2cc(C(=O)Nc3ccc(F)c(Nc4ncccc4-c4ncnc5[nH]cnc45)c3F)cc(C(F)(F)F)c2)cn1` [Example 2, N-(3-(3-(9H-purin-6-yl)pyridin-2-ylamino)-2,4-difluorophenyl)-3-(4-methyl-1H-imidazol-1-yl)-5-(trifluoromethyl)benzamide], for which the pIC50 is below 5.00.
On to `CCN1CCN(Cc2ccc(C(=O)Nc3ccc(F)c(Nc4ncccc4-c4ncnc5[nH]cnc45)c3F)cc2C(F)(F)F)CC1` [Example 3, N-(3-(3-(9H-purin-6-yl)pyridin-2-ylamino)-2,4-difluorophenyl)-4-((4-ethylpiperazin-1-yl)methyl)-3-(trifluoromethyl)benzamide], for which the pIC50 is 5.39.
As to `CC(C)C(=O)Nc1ccc(F)c(Nc2ncccc2-c2ncnc3[nH]cnc23)c1F` [Example 4, N-(3-(3-(9H-purin-6-yl)pyridin-2-ylamino)-2,4-difluorophenyl)isobutylamide], the pIC50 was below 5.00.
Then `O=C(Nc1ccc(F)c(Nc2ncccc2-c2ncnc3[nH]cnc23)c1F)c1cccs1` [Example 5, N-(3-(3-(9H-purin-6-yl)pyridin-2-ylamino)-2,4-difluorophenyl)thiophene-2-carboxamide], with below 5.00; and `O=C(Nc1ccc(F)c(Nc2ncccc2-c2ncnc3[nH]cnc23)c1F)c1ccco1` [Example 6, N-(3-(3-(9H-purin-6-yl)pyridine-2-ylamino)-2,4-difluorophenyl)furan-2-carboxamide], with below 5.00; and `O=C(Nc1ccc(F)c(Nc2ncccc2-c2ncnc3[nH]cnc23)c1F)c1ccno1` [Example 7, N-(3-(3-(9H-purin-6-yl)pyridin-2-ylamino)-2,4-difluorophenyl)isoxazole-5-carboxamide], with below 5.00.
As to `O=C(Nc1ccc(F)c(Nc2ncccc2-c2ncnc3[nH]cnc23)c1F)c1cncs1` [Example 8, N-(3-(3-(9H-purin-6-yl)pyridin-2-ylamino)-2,4-difluorophenyl)thiazole-5-carboxamide], the pIC50 is below 5.00.
Turning to `CN1CCN(c2cc(C(=O)Nc3ccc(F)c(Nc4ncccc4-c4ncnc5[nH]cnc45)c3F)cc(C(F)(F)F)c2)CC1` [Example 10, N-(3-(3-(9H-purin-6-yl)pyridin-2-ylamino)-2,4-difluorophenyl)-3-(4-methylpiperazin-1-yl)-5-(trifluoromethyl)benzamide], the pIC50 is 5.93.
With `O=C(Nc1ccc(F)c(Nc2ncccc2-c2ncnc3[nH]cnc23)c1F)c1cc(N2CCSCC2)cc(C(F)(F)F)c1` [Example 11, N-(3-(3-(9H-purin-6-yl)pyridin-2-ylamino)-2,4-difluorophenyl)-3-thiomorpholino-5-(trifluoromethyl)benzamide], the pIC50 is 6.00.
As for `O=C(Nc1ccc(F)c(Nc2ncccc2-c2ncnc3[nH]cnc23)c1F)c1cc(N2CCC(O)CC2)cc(C(F)(F)F)c1` [Example 12, N-(3-(3-(9H-purin-6-yl)pyridin-2-ylamino)-2,4-difluorophenyl)-3-(4-hydroxypiperidin-1-yl)-5-(trifluoromethyl)benzamide], the figure is 5.99; as for `CC1CCN(c2cc(C(=O)Nc3ccc(F)c(Nc4ncccc4-c4ncnc5[nH]cnc45)c3F)cc(C(F)(F)F)c2)CC1` [Example 13, N-(3-(3-(9H-purin-6-yl)pyridin-2-ylamino)-2,4-difluorophenyl)-3-(4-methylpiperidin-1-yl)-5-(trifluoromethyl)benzamide], 5.94; as for `O=C(Nc1ccc(F)c(Nc2ncccc2-c2ncnc3[nH]cnc23)c1F)c1ccc(N2CCSCC2)c(C(F)(F)F)c1` [Example 14, N-(3-(3-(9H-purin-6-yl)pyridin-2-ylamino)-2,4-difluorophenyl)-4-thiomorpholino-3-(trifluoromethyl)benzamide], 6.07.
Consider `CC1CCN(c2ccc(C(=O)Nc3ccc(F)c(Nc4ncccc4-c4ncnc5[nH]cnc45)c3F)cc2C(F)(F)F)CC1` [Example 15, N-(3-(3-(9H-purin-6-yl)pyridin-2-ylamino)-2,4-difluorophenyl)-4-(4-methylpeperidin-1-yl)-3-(trifluoromethyl)benzamide], for which the pIC50 is 5.78.
As to `O=C(Nc1ccc(F)c(Nc2ncccc2-c2ncnc3[nH]cnc23)c1F)c1ccc(Cl)c(C(F)(F)F)c1` [Example 16, N-(3-(3-(9H-purin-6-yl)pyridin-2-ylamino)-2,4-difluorophenyl)-4-chloro-3-(trifluoromethyl)benzamide], the pIC50 was 5.56.
As to `O=C(Nc1ccc(F)c(Nc2ncccc2-c2ncnc3[nH]cnc23)c1F)c1ccc2c(c1)OCCO2` [Example 17, N-(3-(3-(9H-purin-6-yl)pyridin-2-ylamino)-2,4-difluorophenyl)-2,3-dihydrobenzo[b][1,4]dioxine-6-carboxamide], the pIC50 is 5.94.
For `O=C(Nc1ccc(F)c(Nc2ncccc2-c2ncnc3[nH]cnc23)c1F)c1cc(N2CCOCC2)cc(C(F)(F)F)c1` [Example 18, N-(3-(3-(9H-purin-6-yl)pyridin-2-ylamino)-2,4-difluorophenyl)-3-morpholino-5-(trifluoromethyl)benzamide], the negative logarithm of the IC50 (pIC50) was 5.52.
Regarding `O=C(Nc1ccc(F)c(Nc2ncccc2-c2ncnc3[nH]cnc23)c1F)c1ccc(N2CCCC2)c(C(F)(F)F)c1` [Example 19, N-(3-(3-(9H-purin-6-yl)pyridin-2-ylamino)-2,4-difluorophenyl)-4-(pyrrolidin-1-yl)-3-(trifluoromethyl)benzamide], the pIC50 is 6.03.
Consider `N#CC1(c2cccc(C(=O)Nc3ccc(F)c(Nc4ncccc4-c4ncnc5[nH]cnc45)c3F)c2)CC1` [Example 20, N-(3-(3-(9H-purin-6-yl)pyridin-2-ylamino)-2,4-difluorophenyl)-3-(1-cyanocyclopropyl)benzamide], for which the pIC50 was 5.58.
`CC(C)(C(N)=O)c1cccc(C(=O)Nc2ccc(F)c(Nc3ncccc3-c3ncnc4[nH]cnc34)c2F)c1` [Example 22, N-(3-(3-(9H-purin-6-yl)pyridin-2-ylamino)-2,4-difluorophenyl)-3-(1-amino-2-methyl-1-oxopropan-2-yl)benzamide]: the pIC50 is below 5.00.
Take `CC(C)(C#N)c1cccc(C(=O)Nc2cc(Nc3ncccc3-c3ncnc4[nH]cnc34)ccc2Cl)c1` [Example 24, N-(5-(3-(9H-purin-6-yl)pyridin-2-ylamino)-2-chlorophenyl)-3-(2-cyanopropan-2-yl)benzamide]: the negative logarithm of the IC50 (pIC50) was 6.32.
`CC(C)(C#N)c1cccc(C(=O)Nc2c(F)ccc(Nc3ncccc3-c3ncnc4[nH]cnc34)c2F)c1` [Example 25, N-(3-(3-(9H-purin-6-yl)pyridin-2-ylamino)-2,6-difluorophenyl)-3-(2-cyanopropan-2-yl)benzamide]: the negative logarithm of the IC50 (pIC50) was below 5.00.
`O=C(Nc1ccc(F)c(Nc2ncccc2-c2ncnc3[nH]cnc23)c1F)c1ccccc1C(F)(F)F` [Example 26, N-(3-(3-(9H-purin-6-yl)pyridin-2-ylamino)-2,4-difluorophenyl)-2-(trifluoromethyl)benzamide]: the negative-log IC50 (pIC50) was below 5.00.
For the compound `O=C(Nc1ccc(F)c(Nc2ncccc2-c2ncnc3[nH]cnc23)c1F)c1ccc(C(F)(F)F)cc1` [Example 27, N-(3-(3-(9H-purin-6-yl)pyridin-2-ylamino)-2,4-difluorophenyl)-4-(trifluoromethyl)benzamide], the negative logarithm of the IC50 (pIC50) was below 5.00.
As to `O=C(Nc1ccc(F)c(Nc2ncccc2-c2ncnc3[nH]cnc23)c1F)c1cc(F)cc(C(F)(F)F)c1` [Example 28, N-(3-(3-(9H-purin-6-yl)pyridin-2-ylamino)-2,4-difluorophenyl)-3-fluoro-5-(trifluoromethyl)benzamide], the negative-log IC50 (pIC50) was 6.02.
As for `CC(C)(C#N)c1cccc(C(=O)Nc2cccc(Nc3ncccc3-c3ncnc4[nH]cnc34)c2F)c1` [Example 29, N-(3-(3-(9H-purin-6-yl)pyridin-2-ylamino)-2-fluorophenyl)-3-(2-cyanopropan-2-yl)benzamide], the pIC50 is 6.01.
For the compound `O=C(Nc1cc(Nc2ncccc2-c2ncnc3[nH]cnc23)c(F)cc1F)c1cccc(C(F)(F)F)c1` [Example 31, N-(5-(3-(9H-Purin-6-Yl)Pyridin-2-Ylamino)-2,4-Difluorophenyl)-3-(Trifluoromethyl)Benzamide], the pIC50 was below 5.00.
Take `CC(C)(C#N)c1cccc(C(=O)Nc2cc(Nc3ncccc3-c3ncnc4[nH]cnc34)c(F)cc2F)c1` [Example 32, N-(5-(3-(9H-Purin-6-Yl)Pyridin-2-Ylamino)-2,4-Difluorophenyl)-3-(2-Cyanopropan-2-Yl)Benzamide]: the pIC50 is 6.76.
As to `O=C(Nc1ccc(F)c(Nc2ncccc2-c2ncnc3[nH]cnc23)c1F)c1cccc([N+](=O)[O-])c1` [Example 34, N-(3-(3-(9H-Purin-6-Yl)Pyridin-2-Ylamino)-2,4-Difluorophenyl)-3-Nitrobenzamide], the pIC50 is below 5.00.
As for `COc1cccc(C(=O)Nc2ccc(F)c(Nc3ncccc3-c3ncnc4[nH]cnc34)c2F)c1` [Example 35, N-(3-(3-(9H-Purin-6-Yl)Pyridin-2-Ylamino)-2,4-Difluorophenyl)-3-Methoxybenzamide], the figure is below 5.00.
With `N#Cc1cccc(C(=O)Nc2ccc(F)c(Nc3ncccc3-c3ncnc4[nH]cnc34)c2F)c1` [Example 37, N-(3-(3-(9H-Purin-6-Yl)Pyridin-2-Ylamino)-2,4-Difluorophenyl)-3-Cyanobenzamide], the negative logarithm of the IC50 (pIC50) is below 5.00.
